According to publication PMC9435431, “Novel chemical entities inhibiting Mycobacterium tuberculosis growth identified by phenotypic high-throughput screening” (Scientific Reports, 2022):

What was measured:
M. tuberculosis = assay type: cell-based
[1] = tested on: M. tuberculosis QcrB A396T mutant strain; assay type: cell-based, Mycobacterium tuberculosis
[2] = tested on: M. tuberculosis MmpL3 G253E mutant strain; assay type: cell-based, Mycobacterium tuberculosis
[3] = tested on: M. tuberculosis MmpL3 Y252S mutant strain; assay type: cell-based, Mycobacterium tuberculosis
[4] = tested on: M. tuberculosis MmpL3 Y252C mutant strain; assay type: cell-based, Mycobacterium tuberculosis
[5] = tested on: M. tuberculosis MmpL3 F255L mutant strain; assay type: cell-based, Mycobacterium tuberculosis

O=C(O)C(F)(F)F.c1cc(C2CCN(CC3CCCCC3)CC2)ccn1 [Molecule 4PP-32, 4-[1-(Cyclohexylmethyl)-4-piperidyl]pyridine, 2,2,2-trifluoroacetic acid salt]
frequency of resistance (M. tuberculosis): 7.35 × 10^−8

CC(=O)n1nccc1-c1sc(-c2cccs2)nc1C [TPT]
Fold-change [1]: 8.9 | IC90 [1]: 63 µM | activity against the QcrB mutant strain (in words) [1]: ≥ threefold lower activity

O=C(NCCc1cccc(Br)c1)C1(c2ccc(F)cc2)CCC1 [PCB-19, N-(3-bromophenethyl)-1-(4-fluorophenyl)cyclobutane-1-carboxamide]
frequency of resistance (M. tuberculosis): 7.0 × 10^−8 | MmpL3 G253E MIC [2]: 20 µM | MmpL3 Y252S MIC [3]: 35 µM | MmpL3 Y252C MIC [4]: 45 µM | MmpL3 F255L MIC [5]: 3 µM

Cc1ccc(-c2nnc(C)c(N3CCCC3)n2)cc1 [PYT]
Fold-change [1]: 5.8 | IC90 [1]: 62 µM | activity against the QcrB mutant strain (in words) [1]: ≥ threefold lower activity

CC(C)(C)CC(C)(C)N1CCC(c2ccccc2)CC1 [Molecule 4PP-44, 4-Phenyl-1-(1,1,3,3-tetramethyl-butyl)-piperidine]
Fold change [5]: 3.5 | IC90 [5]: 18 µM

Cc1cc(C)n(-c2nc(N)cc(-c3cccc(F)c3)n2)n1 [PZP-2]
Fold change [5]: > 13 | IC90 [5]: > 100 µM

Cc1nc(-c2ccccn2)nc(NCCNc2ccc(C(F)(F)F)cn2)c1Cl [APDP-2]
Fold change [5]: 0.5 | IC90 [5]: 15 µM

CC(=O)c1ccc(NC(=O)NC(C)C23CC4CC(CC(C4)C2)C3)cc1 (stereo not shown) [HBU-3]
Fold change [5]: 2.4 | IC90 [5]: 71 µM

O=C(NCCc1ccc(Br)cc1)NC12CC3CC(CC(C3)C1)C2 [HBU-4]
Fold change [5]: > 8.3 | IC90 [5]: > 100 µM

Cc1ccccc1C1(C(=O)NCCc2cccc(Br)c2)CCC1 [PCB-23, N-(3-bromophenethyl)-1-(o-tolyl)cyclobutane-1-carboxamide]
MmpL3 G253E MIC [2]: 27 µM | MmpL3 Y252S MIC [3]: 82 µM | MmpL3 Y252C MIC [4]: 83 µM | MmpL3 F255L MIC [5]: 8.0 µM

O=C(NCCc1cccc(Br)c1)C1(c2cccc(Cl)c2)CCC1 [PCB-16, N-(3-bromophenethyl)-1-(3-chlorophenyl)cyclobutane-1-carboxamide]
MmpL3 G253E MIC [2]: 75 µM | MmpL3 Y252S MIC [3]: 50 µM | MmpL3 Y252C MIC [4]: 43 µM | MmpL3 F255L MIC [5]: 8.0 µM

CC1C(CNC(=O)Nc2ccccc2)CC2CC1C2(C)C (stereo not shown) [HBU-2]
Fold change [5]: 8.0 | IC90 [5]: 39 µM

O=C(NCCc1cccc(Br)c1)C1(c2ccccc2Br)CCC1 [PCB-21, N-(3-bromophenethyl)-1-(2-bromophenyl)cyclobutane-1-carboxamide]
frequency of resistance (M. tuberculosis): 5.26 × 10^−8 | MmpL3 G253E MIC [2]: 41 µM | MmpL3 Y252S MIC [3]: > 100 µM | MmpL3 Y252C MIC [4]: 96 µM | MmpL3 F255L MIC [5]: 22 µM

CC(NC(=O)Nc1nc(-c2ccc(Cl)cc2)cs1)C1CC2C=CC1C2 (stereo not shown) [HBU-5]
Fold change [5]: 0.5 | IC90 [5]: 6.9 µM

O=C(O)C(F)(F)F.c1ccc2c(C3CCN(CC4CCCCC4)CC3)cccc2c1 [Molecule 4PP-31, 1-(Cyclohexylmethyl)-4-(1-naphthyl)piperidine; 2,2,2-trifluoroacetic acid]
Fold change [5]: 15 | IC90 [5]: 45 µM

O=C(Nc1nc2ccccc2s1)NC1C2CC3CC(C2)CC1C3 (stereo not shown) [HBU-1]
Fold change [5]: 1.4 | IC90 [5]: 6 µM

Cc1cc(NC2CCCCC2)nc(-n2nc(C)cc2C)n1 [PZP-3]
Fold change [5]: 10 | IC90 [5]: 46 µM

Cc1nc(-c2ccccn2)nc(NCc2ccccc2)c1Cl [APDP-3]
Fold change [5]: 3.5 | IC90 [5]: 22 µM

CCC1(N2CCC(c3ccccc3)CC2)CCCCC1 [Molecule 4PP-1, 1-(1-Ethyl-cyclohexyl)-4-phenyl-piperidine]
MmpL3 G253E MIC [2]: 91 µM | MmpL3 Y252S MIC [3]: 93 µM | MmpL3 Y252C MIC [4]: 30 µM | Fold change [5]: 11 | IC90 [5]: 68 µM | MmpL3 F255L MIC [5]: 68 µM

CNc1cc(-c2ccccn2)nc(-c2ccccn2)n1 [APDP-1]
Fold change [5]: 0.9 | IC90 [5]: 9.2 µM

COc1ccc(-c2cc(N)nc(-n3nc(C)cc3C)n2)cc1 [PZP-1]
Fold change [5]: > 19 | IC90 [5]: > 100 µM

O=C(NCCc1cccc(Br)c1)C1(c2ccccc2Cl)CCC1 [PCB-17, N-(3-bromophenethyl)-1-(2-chlorophenyl)cyclobutane-1-carboxamide]
MmpL3 G253E MIC [2]: 28 µM | MmpL3 Y252S MIC [3]: 87 µM | MmpL3 Y252C MIC [4]: 94 µM | MmpL3 F255L MIC [5]: 9.0 µM
